# From patent publication US11111242B2, “Pyrrolo[2,3-d]pyrimidinyl, pyrrolo[2,3-b]pyrazinyl and pyrrolo[2,3-d]pyridinyl acrylamides” (Pfizer Inc., priority 2013, dated 2021)
# Where two headings read alike, the source gives them in different places.
# How the values were obtained:
# [1] = tested on: IL-15 induced STAT5 phosphorylation in Human Whole Blood (total lymphocytes); experiment: HWB IL-15 Induced STAT5 Phosphorylation Assay; type: cell-based; settings: Lymphocyte, IL-15 stimulated, read-out: HWB-IL15-pSTAT5 IC50
# Protocol: HWB IL-15 Induced STAT5 Phosphorylation Assay
# After mixing and incubating for 45 minutes at 37° C., 5 μl D-PBS (unstimulated control) or 20× stocks of 5 μl human IL-15 (final concentration is 50 ng/ml) were added, and mixed three times. After incubating 15 minutes at 37° C., 1× Lyse/Fix Buffer (BD Phosflow 5× Lyse/Fix Buffer) was added to all wells at 1000 μl/well, then incubated for 20 minutes at 37° C. and spun 5 mins at 1200 rpm. […] Following incubating at 4° C. over night, all the samples were transferred to 96-well polypropylene U-bottom plate, and checked by flow cytometry gated on total lymphocytes.
# [2] = tested on: IL-15 induced P-STAT5 in human PBMC (total lymphocytes); experiment: PBMC IL-15 Induced P-STAT5; type: cell-based; settings: IL-15 stimulated, read-out: PBMC IL15-pSTAT5 IC50
# Outline: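 Thawed human PBMC in RPMI, preincubated 30 min at 37 °C, then IL-15 stimulated. Cells methanol-permeabilized (90%, on ice 20 min) and stained for phospho-STAT5. Read by flow cytometry, gated on total lymphocytes.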
Compound,IC50 [1],IC50 [2],"IC50 ([2]; Homo sapiens, PBMC)"
"C#CCNC(=O)c1c[nH]c2ncc(NC3CCN(C(=O)C=C)CC3)nc12 [Example 343, 2-((1-Acryloylpiperidin-4-yl)amino)-N-(prop-2-yn-1-yl)-5H-pyrrolo[2,3-b]pyrazine-7-carboxamide]",105 nM,36.8 nM,–
"C=CC(=O)N1CCC(Nc2cnc3[nH]cc(C(=O)NC4CCCCC4(F)F)c3n2)CC1 (centres unmarked) [Example 256, 2-[(1-acryloylpiperidin-4-yl)amino]-N-(2,2-difluorocyclohexyl)-5H-pyrrolo[2,3-b]pyrazine-7-carboxamide]",550 nM,48.6 nM,–
"C=CC(=O)N1C[C@@H](C)C[C@@H](Nc2ncnc3[nH]ccc23)C1 (single isomer, unassigned) [Example 14]",538 nM,114 nM,–
"C=CC(=O)N1CCC(Nc2cnc3[nH]cc(C(=O)NC[C@H](C)CC(F)(F)F)c3n2)CC1 [Example 241, 2-[(1-acryloylpiperidin-4-yl)amino]-N-[(2R)-4,4,4-trifluoro-2-methylbutyl]-5H-pyrrolo[2,3-b]pyrazine-7-carboxamide]",657 nM,–,87.9 nM
"C=CC(=O)N1C[C@H](Nc2ncnc3[nH]ccc23)C[C@H](N(C)C)C1 [Example 57, 1-((3R,5S)-3-((7H-Pyrrolo[2,3-d]pyrimidin-4-yl)amino)-5-(dimethylamino)piperidin-1-yl)prop-2-en-1-one]",2610 nM,1230 nM,–
"C=CC(=O)N1C[C@@H](F)C[C@@H](Nc2ncnc3[nH]ccc23)C1 [Example 15, 1-((3R,5S)-3-((7H-Pyrrolo[2,3-d]pyrimidin-4-yl)amino)-5-fluoropiperidin-1-yl)prop-2-en-1-one]",400 nM,–,128 nM
"C=CC(=O)N1CCC(Nc2cnc3[nH]cc(C(=O)NCC(C)(C)C)c3n2)CC1 [Example 271, 2-[(1-acryloylpiperidin-4-yl)amino]-N-(2,2-dimethylpropyl)-5H-pyrrolo[2,3-b]pyrazine-7-carboxamide]",790 nM,–,135 nM
"C=CC(=O)N1CCC(Nc2cnc3[nH]cc(C(=O)NCC(F)(F)F)c3n2)CC1 [Example 273, 2-[(1-acryloylpiperidin-4-yl)amino]-N-(2,2,2-trifluoroethyl)-5H-pyrrolo[2,3-b]pyrazine-7-carboxamide]",214 nM,56.7 nM,–
"C=CC(=O)N1CC[C@H](Nc2cnc3[nH]cc(C(=O)NC(C)C)c3n2)C1 [Example 171, 2-{[(3S)-1-acryloylpyrrolidin-3-yl]amino}-N-(propan-2-yl)-5H-pyrrolo[2,3-b]pyrazine-7-carboxamide]",2950 nM,726 nM,–
"C=CC(=O)N1CC[C@@H](CNc2cnc3[nH]cc(C(=O)NC(C)C)c3n2)C1 [Example 191, 2-({[(3S)-1-acryloylpyrrolidin-3-yl]methyl}amino)-N-(propan-2-yl)-5H-pyrrolo[2,3-b]pyrazine-7-carboxamide]",9580 nM,2650 nM,–
"C=CC(=O)N1CCN(c2cnc3[nH]cc(C(=O)NC(C)C)c3n2)CC1(C)C [Example 293, 2-(4-acryloyl-3,3-dimethylpiperazin-1-yl)-N-(propan-2-yl)-5H-pyrrolo[2,3-b]pyrazine-7-carboxamide]",4490 nM,–,300 nM
"C=CC(=O)N1CCN(c2cnc3[nH]cc(C(=O)NC(C)C)c3n2)C[C@@H]1CC(C)C [Example 303, 2-[(3S)-4-acryloyl-3-(2-methylpropyl)piperazin-1-yl]-N-(propan-2-yl)-5H-pyrrolo[2,3-b]pyrazine-7-carboxamide]",2730 nM,–,294 nM
"C=CC(=O)N1CCC(Nc2cnc3[nH]cc(C(=O)NCCC#N)c3n2)CC1 [Example 261, 2-[(1-acryloylpiperidin-4-yl)amino]-N-(2-cyanoethyl)-5H-pyrrolo[2,3-b]pyrazine-7-carboxamide]",215 nM,214 nM,–
"C=CC(=O)N1CCC(Nc2cnc3[nH]cc(-c4ccc(F)nc4)c3n2)CC1 [Example 207, 1-(4-{[7-(6-fluoropyridin-3-yl)-5H-pyrrolo[2,3-b]pyrazin-2-yl]amino}piperidin-1-yl)prop-2-en-1-one]",2820 nM,185 nM,–
"C=CC(=O)N1CCC(Nc2cnc3[nH]cc(C(=O)NC4CCC(F)(F)C4)c3n2)CC1 (centres unmarked) [Example 259, 2-[(1-acryloylpiperidin-4-yl)amino]-N-(3,3-difluorocyclopentyl)-5H-pyrrolo[2,3-b]pyrazine-7-carboxamide]",668 nM,117 nM,–
"C=CC(=O)N1CCC(Nc2cnc3[nH]cc(C(=O)NCCOC)c3n2)CC1 [Example 275, 2-[(1-acryloylpiperidin-4-yl)amino]-N-(2-methoxyethyl)-5H-pyrrolo[2,3-b]pyrazine-7-carboxamide]",389 nM,149 nM,–

Compound,IC50 [1],IC50 [2],"IC50 ([2]; Homo sapiens, PBMC)"
"C=CC(=O)N1CCC(Nc2cnc3[nH]cc(C(=O)NCCCC)c3n2)CC1 [Example 269, 2-[(1-acryloylpiperidin-4-yl)amino]-N-butyl-5H-pyrrolo[2,3-b]pyrazine-7-carboxamide]",364 nM,47.9 nM,–
"C=CC(=O)N1CCC(Nc2cnc3[nH]cc(C(=O)N[C@H](CC)CC#N)c3n2)CC1 [Example 263, 2-[(1-acryloylpiperidin-4-yl)amino]-N-[(2R)-1-cyanobutan-2-yl]-5H-pyrrolo[2,3-b]pyrazine-7-carboxamide]",431 nM,74.3 nM,–
"C=CC(=O)N1CC[C@@H](F)[C@@H](Nc2ncnc3[nH]ccc23)C1 [Example 54, 1-((3S,4R)-3-((7H-Pyrrolo[2,3-d]pyrimidin-4-yl)amino)-4-fluoropiperidin-1-yl)prop-2-en-1-one]",366 nM,–,222 nM
"C=CC(=O)N1CCC(Nc2cnc3[nH]cc(C(=O)N[C@H](C)CCC)c3n2)CC1 [Example 274, 2-[(1-acryloylpiperidin-4-yl)amino]-N-[(2R)-pentan-2-yl]-5H-pyrrolo[2,3-b]pyrazine-7-carboxamide]",476 nM,57.9 nM,–
"C=CC(=O)N1CC[C@H](Nc2cnc3[nH]cc(C(=O)NC(C)C)c3n2)[C@H](OC)C1 [Example 317, 2-{[(3R,4S)-1-acryloyl-3-methoxypiperidin-4-yl]amino}-N-(propan-2-yl)-5H-pyrrolo[2,3-b]pyrazine-7-carboxamide]",420 nM,243 nM,–
"C=CC(=O)N1CCC(Nc2cnc3[nH]cc(C(=O)N[C@H]4CC[C@@H](F)C4)c3n2)CC1 [Example 244, 2-[(1-acryloylpiperidin-4-yl)amino]-N-[(1S,3R)-3-fluorocyclopentyl]-5H-pyrrolo[2,3-b]pyrazine-7-carboxamide]",403 nM,–,127 nM
"C=CC(=O)N1CCC(Nc2cnc3[nH]cc(C(=O)NC(C)(C)C)c3n2)CC1 [Example 266, 2-[(1-acryloylpiperidin-4-yl)amino]-N-tert-butyl-5H-pyrrolo[2,3-b]pyrazine-7-carboxamide]",386 nM,71 nM,–
"C=CC(=O)N1CCC(Nc2cnc3[nH]cc(C(=O)N[C@@H]4C[C@H]4C(F)(F)F)c3n2)CC1 [Example 233, 2-[(1-acryloylpiperidin-4-yl)amino]-N-[(1R,2R)-2-(trifluoromethyl)cyclopropyl]-5H-pyrrolo[2,3-b]pyrazine-7-carboxamide]",532 nM,213 nM,–
"C=CC(=O)N1CCC[C@@H](Nc2ncnc3[nH]cc(C)c23)C1 [Example 43, 1-{(3R)-3-[(5-methyl-7H-pyrrolo[2,3-d]pyrimidin-4-yl)amino]piperidin-1-yl}prop-2-en-1-one]",463 nM,116 nM,–
"C=CC(=O)N1CC[C@H](C)[C@@H](Nc2ncnc3[nH]ccc23)C1 (racemic) [Example 50, 1-[(3R,4S)-4-methyl-3-(7H-pyrrolo[2,3-d]pyrimidin-4-ylamino)piperidin-1-yl]prop-2-en-1-one]",926 nM,–,202 nM
"C=CC(=O)N1CCC(Nc2cnc3[nH]cc(-c4ccnc(C)c4)c3n2)CC1 [Example 201, 1-(4-{[7-(2-methylpyridin-4-yl)-5H-pyrrolo[2,3-b]pyrazin-2-yl]amino}piperidin-1-yl)prop-2-en-1-one]",3480 nM,262 nM,–
"C=CC(=O)N1C[C@@H](O)C[C@@H](Nc2ncnc3[nH]ccc23)C1 [Example 17, 1-((3R,5S)-3-(7H-Pyrrolo[2,3-d]pyrimidin-4-ylamino)-5-hydroxypiperidin-1-yl)prop-2-en-1-one]",210 nM,–,71.8 nM
"C=CC(=O)N1C[C@@H]2C[C@H]1CN2c1cnc2[nH]cc(C(=O)NC(C)C)c2n1 [Example 300, 2-[(1S,4S)-5-acryloyl-2,5-diazabicyclo[2.2.1]hept-2-yl]-N-(propan-2-yl)-5H-pyrrolo[2,3-b]pyrazine-7-carboxamide]",3400 nM,714 nM,–
"C=CC(=O)N1C[C@@H](C)C[C@@H](Nc2ncnc3[nH]ccc23)C1 (racemic) [Example 22, rac-cis-1-((3R,5S)-3-((7H-Pyrrolo[2,3-d]pyrimidin-4-yl)amino)-5-methylpiperidin-1-yl)prop-2-en-1-one]",712 nM,216 nM,–
"C=CC(=O)N1CCC(Nc2cnc3[nH]cc(-c4ccccc4)c3n2)CC1 [Example 209, 1-{4-[(7-phenyl-5H-pyrrolo[2,3-b]pyrazin-2-yl)amino]piperidin-1-yl}prop-2-en-1-one]",6690 nM,152 nM,–
